The values below come from patent publication US11485714B2, “Hydroxyethylamine-based piperazine compounds, and methods of producing and using the same for treating disease” (National Institute of Immunology, priority 2020, dated 2022).

For series [1], the system named is P. berghei ookinete (Pb-GFPcon). Put plainly: In vitro ookinete inhibition assay. Format: cell-based, Plasmodium berghei. How it is done:
[3] In vitro Ookinete inhibition assay of Calxinin. To determine whether Compound I (Calxinin) is blocking the growth of the transmission stage of malaria GFP-expressing P. berghei ANKA constitutively (Pb-GFPcon), which expresses the GFP during all the developmental stages, was used during in vitro experiments. Compound I (Calxinin) was tested in nanomolar range for its ability to inhibit ookinete development. Early gametocyte stage was maintained in vitro by incubating in ookinete media containing Xanthrunic acid and various other nutrients (complete DMEM) and pH 8.0. For the inhibition assay, culture plates containing Calxinin at different concentrations were incubated for about 24 h at 19° C. on a shaker and in the dark. After 24 h, ookinete development was checked by generating blood smears from the cultures. Smears were fixed, stained with Giemsa and counted in a NIKON 80i microscope.
Example 13—In-vitro Ookinete inhibition assay Encouraged with notable potency against symptomatic asexual blood stage, liver stage, and gametocidal activity, transmission blocking efficacy of Compound I (Calxinin) was evaluated against ookinete. […] As the concentration of Compound I increases, the percentage of healthy parasite is reduced and the % of deformed parasite increases (FIG. 7B).

A short description of series [2]: Hemostatic parameters, plasmatic and whole blood assays (thrombelastography). How it is done: Studies were performed to assess the effect of Calxinin on hemostatic parameters using plasmatic and whole blood assays.
Series [3] deals with P. berghei sporozoites in HepG2 cells. The series is described as follows: Liver stage infection in HepG2 cells, qPCR of 18SrRNA. Format: cell-based, Plasmodium berghei. To be noted: for IC50: read-out: in-vitro liver stage IC50. From the text:
Liver stage infection in HepG2 cells: Salivary glands of Anopheles stephensi mosquitoes infected with green fluorescent protein (GFP)-expressing P. berghei ANKA (Insectary at National Institute of Immunology, New Delhi, India) were dissected out. Sporozoites were perched in complete medium (Dulbecco's Modified Eagle Medium (DMEM)) with 10% fetal bovine serum (FBS), 3% penicillin-streptomycin (P/S)), and allowed to infect HepG2 cells. The cells were already treated with Calxinin at various concentrations (0.1 μM, 1 μM and 10 μM). The plate was centrifuged at 3000 rpm for 5 minutes to ensure the sporozoites settled down in the plate, and then placed in the incubation at 37° C. for 3 hours. Afterwards, media was replaced with pre-warmed medium (DMEM, 10% FBS, 3% P/S, and 0.1% Fungizone) supplemented with dimethyl sulfoxide (DMSO), and Calxinin at indicated concentrations. After two days, the cells were treated with Trizol and […] at −80° C. RNA isolation followed by reverse transcription polymerase chain reaction (RTPCR) was done to estimate the parasite load in the infected cells.
Compound I was tested in vitro against Plasmodium liver stage parasites. HepG2 cells, a human hepatocyte cell line, were infected with Plasmodium berghie sporozoites (mosquito infective forms of malaria). One set of cells was treated with 0.4, 2.0 and 10.0 micromolar concentration of inhibitor Compound I, and the other set was left untreated. Sporozoite infection time was considered as zero time. Twenty-four hours after infection the culture media was refreshed and the inhibitors were replenished. After forty-eight hours, total cells were harvested and total RNA was extracted by the Trizol™ method. RNA was converted into cDNA and realtime PCR was performed using the parasite 18SrRNA primers. This determined the liver stage parasite burden, which was then converted into percent inhibition by comparing with the untreated set.
Liver schizont stages are the first stage of human infection after injection of sporozoites by mosquitoes. The activity of compounds against this stage offers the important part of the antimalarial therapy, chemoprotection. To evaluate the efficacy of Compound I against liver stage parasites, HepG2 cells were infected with P. berghei sporozoites, in triplicates, and dosed with 0.1, 1, 10 μM of Compound I dissolved in 1% DMSO. The parasite load was quantified in control and Compound I-treated cells by quantitative PCR (qPCR) using parasite specific 18SrRNA primers. […] Inhibitory effect decreases up to 61% while treating cells with 10 μM due to precipitation of compound at higher concentration (FIG. 3). […] The liver stage activity of Compound I is much higher over the current treatments, atovaquone (ATQ) in culture.

Series [4] can be described thus: In vitro cytotoxicity, Huh 7.1 (Alamar Blue). Format: cell-based. To be noted: human, Huh 7.1 cells; read-out: CC50 (50% cell toxicity). How it is done:
In addition, the cell viability of Huh 7 and HEK293 cells was evaluated post drug exposure using the Alamar Blue assay [Riss, Terry L., et al. “Cell viability assays.” Assay Guidance Manual [Intenet]. Eli Lilly & Company and the National Centre for Advancing Translational Sciences, 2016]. Cells ([…]) were exposed to varying concentrations of test compounds, for 24 hours in 96-well plate format along with 10/100 μL Alamar Blue solution (10×=4.8 mM in phosphate buffer) per well. […] Results from the cytotoxicity assays were expressed as CC50 at which 50% of the cells died/metabolically slowed down due to drug exposure compared to the non-treated and vehicular control.
(§1) The cytotoxicity of Compound I was tested by exposing peripheral blood mononuclear cells (PBMCs) to drug concentrations corresponding to averages of both Pf3D7 and PfDd2 IC50 values. This was intended to establish whether the observed antiparasitic effects of the compounds were due to non-specific inhibitory activity. […] The IC50 required for killing the parasite is <90 nM. Therefore, in order to be toxic for human cells we have to use over 650 fold concentration.

For series [5], the system named is P. falciparum CQ-resistant (PfDd2). The series is described as follows: SYBR Green I assay, asynchronous cultures, CQ-resistant clone. Format: cell-based. To be noted: Plasmodium falciparum.
Series [6] relates to peripheral blood mononuclear cells (PBMCs). The series is described as follows: In vitro cytotoxicity, PBMC (MTT, Cell Titer Glo). Format: cell-based, human. How it is done:
(§2) [6] PBMC were isolated from healthy donors using the Ficoll-Paque™ technique (GE Healthcare Bioscience AB, Uppsala, Sweden) from donor leukopack samples obtained from LUMC blood bank services. […] Robust cells at a concentration of 80,000 cells/ml were plated into 96-well plates and incubated for 24 hours. Cell viability and proliferation was determined by use of both MTT and Cell Titer Glo@ assays for both cell types. MTT assay was conducted by addition of 10 μL MTT solution (5 mg/mL) into each well, incubated for 4 hour at 37° C. followed by addition of 50 μL DMSO to dissolve the formazan precipitate according to the manufacturer's protocol. Aliquots were drawn from each well and color intensity was measured spectrophotometrically in SpectraMax® M5 Multi-Mode Microplate Reader.
as §1

Series [7] is described as follows: In vitro cytotoxicity, PBMC (MTT, Cell Titer Glo). Format: cell-based, human. To be noted: human; PBMCs; read-out: CC50 (50% cell toxicity). How it is done:
as §2, §1

Like-named read-outs stand apart in the source and are kept apart here.

In the case of `NC(Cc1ccccc1)C(O)CN1CCN(Cc2ccc(C(F)(F)F)cc2)CC1` (stereo not shown) [Compound I], the ookinete morphology result in series [1] (450 nanomolar) was “deformed and retarded Ookinete”. For the same molecule, the IC50 in series [1] (Plasmodium berghei, 24 h, 19° C.) is around 0.15 µM; in series [3] (Plasmodium berghei, HepG2), 0.079 µM; in series [3] (listed as Calxinin), 0.065 µM; in series [5] (72 h, read-out: PfDd2 IC50, nM (±SD)) it was 88 nM; in series [5] (DD2, read-out: IC50 against asexual stages, drug resistant (CQ-resistant) DD2), 88 nM; in series [5] (read-out: mean half maximal inhibitory concentration (IC50) for PfDd2), 88 nM. In addition, the “anticoagulant effect (hemostatic parameters)” value in series [2] was “no adverse impact”. Further, the “clot formation by thrombelastography” value in series [2] (up to 20 μg/ml) is recorded as “did not impact clot formation”. Moreover, the inhibition at 0.1 µM in series [3] (Plasmodium berghei, HepG2, 0.1 μM, read-out: inhibition of liver stage parasite load) was around 60%. In addition, the inhibition at 1 µM in series [3] (Plasmodium berghei, HepG2, 1 μM, read-out: inhibition of liver stage parasite load) was around 88%. In addition, the inhibition at 10 µM in series [3] (Plasmodium berghei, HepG2, 10 μM, precipitation of compound, read-out: inhibition of liver stage parasite load) was at most 61%. For the same molecule, the results for the CC50 at 24 h in series [4] and in series [7] were 100 µM and 1000 µM, respectively. Also, in series [6] (24 hours), the “% PBMC viability relative to vehicle control” value is above 100%. Moreover, the “proliferation of the PBMCs (PBMC)” value in series [6] (concentration = average of Pf3D7 and PfDd2 IC50, Cell Titer-GLO) was determined as 110.12.
